Assay results taken from US5798336A, “Antimicrobial peptides” (priority 1995, dated 1998).
Like-named read-outs stand apart in the source and are kept apart here. Where a SMILES comes first, the peptide text is derived from it.

Experiments:
S. aureus strain 8325-4 [1] = conditions: Table 3; all peptides at 5×10^-4 M
[2] = tested on: N. gonorrhoeae strain WS1
S. aureus strain 8325-4 [3] = conditions: strain 8325-4, 500

Row | Compound | Log Kill (500 μg/ml) P. aeruginosa ATCC 27853 (P. aeruginosa ATCC 27853; ATCC 27853, 500) [log] | Log Kill (500 μg/ml) N. gonorrhoeae strain WS1 ([2]; strain WS1, 500) [log] | Log Kill (500 μg/ml) S. aureus strain 8325-4 (S. aureus strain 8325-4 [3]) [log] | Log Kill (500 μg/ml) P. aeruginosa ATCC 278533 (P. aeruginosa ATCC 27853; ATCC 27853, 500) [log] | other results
1 | H^Dnp PQYNQR | – | – | – | – | % Survival of S. aureus (S. aureus strain 8325-4 [1]): 102.2%
2 | CSCC[C@H](NC(=O)[C@H](CO)NC(=O)[C@@H](NC(=O)[C@H](CCCNC(=N)N)NC(=O)CNC(=O)[C@H](Cc1c[nH]c2ccccc12)NC(=O)CNC(=O)[C@H](C)NC(=O)[C@@H](NC(=O)[C@@H](NC(=O)[C@@H](N)CS)[C@@H](C)O)C(C)C)C(C)C)C(=O)N[C@@H](CCCNC(=N)N)C(=O)N[C@@H](CCCNC(=N)N)C(=O)NCC(=O)N[C@H](C(=O)O)[C@@H](C)O [CG 122-136] (H-CTVAGWGRVSMRRGT-OH) | 4.75 | 4.18 | 0 | – | –
3 | CC[C@H](C)[C@H](N)C(=O)N[C@H](C(=O)NCC(=O)NCC(=O)N[C@@H](CCCNC(=N)N)C(=O)N[C@@H](CCC(=O)O)C(=O)N[C@@H](CO)C(=O)N[C@@H](CCCNC(=N)N)C(=O)N1CCC[C@H]1C(=O)N[C@@H](Cc1c[nH]cn1)C(=O)N[C@@H](CO)C(=O)N[C@@H](CCCNC(=N)N)C(=O)N1CCC[C@H]1C(=O)N[C@@H](Cc1ccc(O)cc1)C(=O)N[C@@H](CCSC)C(=O)N[C@@H](C)C(=O)N[C@@H](Cc1ccc(O)cc1)C(=O)N[C@@H](CC(C)C)C(=O)N[C@@H](CCC(N)=O)C(=O)N[C@H](C(=O)O)[C@@H](C)CC)[C@@H](C)CC [CG 1-20] (H-IIGGRESRPHSRPYMAYLQI-OH) | 5.507 | 2.57 | 0.3 | 1.0 | Log Kill (500 μg/ml) N. gonorrhoeae strain WSI ([2]; strain WS1, 500): 0.43 log
4 | CC[C@H](C)[C@H](NC(=O)[C@H](CC(=O)O)NC(=O)[C@H](CC(N)=O)NC(=O)[C@H](CCC(N)=O)NC(=O)[C@@H](NC(=O)[C@@H](NC(=O)[C@H](CCCNC(=N)N)NC(=O)[C@H](CCC(N)=O)NC(=O)[C@H](CC(N)=O)NC(=O)[C@H](Cc1ccc(O)cc1)NC(=O)[C@H](CCC(N)=O)NC(=O)[C@@H]1CCCN1C(=O)[C@@H](N)Cc1c[nH]cn1)[C@@H](C)O)[C@@H](C)CC)C(=O)N[C@@H](CCSC)C(=O)N[C@@H](CC(C)C)C(=O)N[C@@H](CC(C)C)C(=O)N[C@@H](CCC(N)=O)C(=O)N[C@@H](CC(C)C)C(=O)N[C@@H](CO)C(=O)N[C@@H](CCCNC(=N)N)C(=O)O [CG 77-96] (H-HPQYNQRTIQNDIMLLQLSR-OH) | 0.06 | 0.24 | – | – | –
5 | CSCC[C@H](NC(=O)[C@H](CO)NC(=O)[C@@H](NC(=O)[C@H](CCCNC(=N)N)NC(=O)CNC(=O)[C@H](Cc1c[nH]c2ccccc12)NC(=O)CNC(=O)[C@H](C)NC(=O)[C@@H](NC(=O)[C@@H](NC(=O)[C@H](CS)NC(=O)[C@H](CC(C)C)NC(=O)[C@@H](NC(=O)CNC(=O)[C@@H]1CCCN1C(=O)[C@@H](N)CCCNC(=N)N)[C@@H](C)O)[C@@H](C)O)C(C)C)C(C)C)C(=O)N[C@@H](CCCNC(=N)N)C(=O)N[C@@H](CCCNC(=N)N)C(=O)NCC(=O)N[C@H](C(=O)O)[C@@H](C)O [CG 117-136] (H-RPGTLCTVAGWGRVSMRRGT-OH) | 5.8 | – | 5.34 | 5.88 | –
6 | CC[C@H](C)[C@H](NC(=O)[C@H](CCCNC(=N)N)NC(=O)[C@H](CC(C)C)NC(=O)[C@H](CS)NC(=O)[C@H](CCC(N)=O)NC(=O)[C@H](CCCNC(=N)N)NC(=O)[C@H](CC(=O)O)NC(=O)[C@H](CCCNC(=N)N)NC(=O)[C@H](CCC(N)=O)NC(=O)[C@@H](NC(=O)[C@H](CCCNC(=N)N)NC(=O)[C@H](CC(C)C)NC(=O)[C@H](CCC(N)=O)NC(=O)[C@@H](NC(=O)[C@H](CCC(=O)O)NC(=O)[C@H](CCCNC(=N)N)NC(=O)[C@H](CC(C)C)NC(=O)[C@@H](NC(=O)[C@@H](N)CC(=O)O)[C@@H](C)O)C(C)C)C(C)C)C(=O)N[C@@H](Cc1ccccc1)C(=O)O [CG 137-156] (H-DTLREVQLRVQRDRQCLRIF-OH) | – | – | – | – | Log Kill (500 μg/ml) P. aeruginosa ATCC 27853 (P. aeruginosa ATCC 27853; Table 6, crude peptides 500 μg/ml, about 10^7 CFU/ml, 1/100 strength HBSS): 0.01 log; Log Kill (500 μg/ml) N. gonorrhoeae strain WS1 ([2]; Table 6, crude peptides 500 μg/ml, 1/100 strength HBSS): 0.43 log
7 | CC[C@H](C)[C@H](NC(=O)[C@H](CC(N)=O)NC(=O)[C@H](Cc1c[nH]cn1)NC(=O)[C@H](C)NC(=O)CNC(=O)[C@H](CC(C)C)NC(=O)[C@@H](NC(=O)[C@@H](NC(=O)[C@H](CC(N)=O)NC(=O)[C@@H](NC(=O)[C@H](CC(N)=O)NC(=O)[C@H](CO)NC(=O)CNC(=O)[C@H](Cc1c[nH]c2ccccc12)NC(=O)[C@H](CS)NC(=O)[C@H](Cc1c[nH]cn1)NC(=O)[C@H](C)NC(=O)[C@H](C)NC(=O)[C@@H](N)[C@@H](C)O)[C@@H](C)CC)C(C)C)[C@@H](C)O)C(=O)N[C@@H](CCC(N)=O)C(=O)O [CG 41-60] (H-TAAHCWGSNINVTLGAHNIQ-OH) | 0.5 | -0.09 | – | – | –
8 | CSCC[C@H](NC(=O)[C@H](CO)NC(=O)[C@@H](NC(=O)[C@H](CCCNC(=N)N)NC(=O)CNC(=O)[C@@H](N)Cc1c[nH]c2ccccc12)C(C)C)C(=O)N[C@@H](CCCNC(=N)N)C(=O)N[C@@H](CCCNC(=N)N)C(=O)NCC(=O)N[C@H](C(=O)O)[C@@H](C)O [CG 127-136] (H-WGRVSMRRGT-OH) | 0.27 | 3.20 | 0 | – | –
9 | CC[C@H](C)[C@H](NC(=O)[C@H](C)NC(=O)[C@H](CCCNC(=N)N)NC(=O)[C@H](CCCNC(=N)N)NC(=O)[C@H](C)NC(=O)[C@@H](NC(=O)[C@@H](NC(=O)[C@H](Cc1c[nH]cn1)NC(=O)[C@H](CCC(N)=O)NC(=O)[C@H](CCC(N)=O)NC(=O)[C@@H](NC(=O)[C@H](CC(N)=O)NC(=O)[C@H](CCC(=O)O)NC(=O)[C@H](CCCNC(=N)N)NC(=O)[C@@H](N)CCCNC(=N)N)[C@@H](C)O)[C@@H](C)CC)[C@@H](C)O)C(=O)N[C@@H](CCCNC(=N)N)C(=O)N[C@@H](Cc1c[nH]cn1)C(=O)N1CCC[C@H]1C(=O)N[C@@H](CCC(N)=O)C(=O)N[C@@H](Cc1ccc(O)cc1)C(=O)O [CG 61-80] (H-RRENTQQHITARRAIRHPQY-OH) | – | 0 | 0.58 | 5.15 | –
